In the NIST ThermoML archive (doi:10.1021/acs.jced.6b00888):
Numbers after ± are expanded uncertainties.

Assay: wn = mass fraction of the nth substance listed
Details: 101.3 kPa, Liquid, Vibrating tube method

CN(C)CCO [2-(N,N-dimethylamino)ethanol] + O
mass density [kg/m3]
Details | w1 = 0.1 | w1 = 0.2 | w1 = 0.3 | w1 = 0.49 | w1 = 0.64 | w1 = 0.69 | w1 = 0.79 | w1 = 0.9 | w1 = 1
293.15 K | 994.8 ± 5.2 | 992.8 ± 5.2 | 990.8 ± 5.3 | 981.7 ± 5.5 | 963 ± 5.8 | 955.3 ± 6.4 | 935.1 ± 6.7 | 911.3 ± 7.2 | 882.2 ± 5.2
298.15 K | 993.3 ± 5.2 | 990.8 ± 5.2 | 988.1 ± 5.3 | 978 ± 5.5 | 959 ± 5.8 | 951.3 ± 6.5 | 931.1 ± 6.7 | 906.9 ± 6.9 | 884 ± 5.2
303.15 K | 991.6 ± 5.3 | 988.6 ± 5.3 | 985.2 ± 5.3 | 974.2 ± 5.5 | 954.9 ± 5.9 | 947.2 ± 6.5 | 926.9 ± 6.8 | 902.2 ± 6.9 | 879.8 ± 5.2
308.15 K | 989.7 ± 5.3 | 986.2 ± 5.3 | 982.2 ± 5.3 | 970.4 ± 5.5 | 950.8 ± 5.9 | 943 ± 6.5 | 922.7 ± 6.8 | 897.9 ± 6.9 | 875.5 ± 5.2
313.15 K | 987.6 ± 5.3 | 983.6 ± 5.3 | 979.1 ± 5.4 | 966.5 ± 5.5 | 946.6 ± 5.9 | 938.8 ± 6.5 | 918.5 ± 6.8 | 893.5 ± 6.9 | 871.2 ± 5.2
318.15 K | 985.3 ± 5.3 | 980.9 ± 5.3 | 975.8 ± 5.4 | 962.6 ± 5.6 | 942.4 ± 5.9 | 934.5 ± 6.5 | 914.2 ± 6.8 | 889.1 ± 6.9 | 866.8 ± 5.2
323.15 K | 982.9 ± 5.3 | 978.4 ± 5.3 | 972.5 ± 5.4 | 958.6 ± 5.6 | 938 ± 5.9 | 930.1 ± 6.5 | 909.8 ± 6.8 | 884 ± 6.9 | 862.4 ± 5.2
328.15 K | 980.3 ± 5.3 | 975.1 ± 5.3 | 969.1 ± 5.4 | 954.5 ± 5.6 | 933.7 ± 5.9 | 925.7 ± 6.5 | 905.4 ± 6.8 | 879.3 ± 6.9 | 858 ± 5.2
333.15 K | 977.6 ± 5.3 | 972 ± 5.4 | 965.5 ± 5.4 | 950.3 ± 5.6 | 929.2 ± 6 | 921.2 ± 6.5 | 900.9 ± 6.8 | 874.8 ± 6.9 | 853.5 ± 5.2
338.15 K | 974.7 ± 5.4 | 968.8 ± 5.4 | 961.9 ± 5.5 | 946.1 ± 5.6 | 924.7 ± 6 | 916.7 ± 6.5 | 896.4 ± 6.8 | 870.4 ± 6.9 | 849 ± 5.2
343.15 K | 971.7 ± 5.4 | 965.5 ± 5.5 | 958.2 ± 5.5 | 941.8 ± 5.7 | 920.2 ± 6 | 912.1 ± 6.5 | 891.8 ± 6.8 | 865.8 ± 6.9 | 844.4 ± 5.2
